Assay results taken from US20060263881A1, “Methods of expanding and selecting disease associated T-Cells” (priority 1998, published 2006).
“And” between values parts separate entries of the source, which are not always exact repeats. Identical values can stand only once.

Columns and labels:
[1] = system: gut T-cell cultures from patients with Crohn's disease; format: cell-based, human
[2] = system: in vivo activated gut T-lymphocytes (primary cultures C11.3, C12.1, C8.1, C8.3) from patients with Crohn's disease; format: cell-based, human; settings: 24 h
human T-cell lines = test: Cytolysis after addition of Infliximab and incubation with fresh human serum (complement); format: cell-based; settings: versus murine SP2/O myeloma cell results
[3] = system: long term cultured gut T-cell cultures C1x, C2x, C4.2; format: cell-based, human
[4] = system: transmembrane TNFα on SP2/O myeloma cells; settings: murine SP2/O myeloma cells with cleavage-resistant transmembrane TNFα; cited from earlier work
[5] = system: gut T-cell cultures from patients with Crohn's disease

Which results are given for “Infliximab: chimeric TNFα antibody with high avidity for transmembrane TNFα (obtained from Centocor)”?
Proliferation rate (in words) [1]: did not change; Reduction of IFNγ production by Infliximab [2]: 68% and 43% and 49% and 56%; Reduction of TNFα production by Infliximab [2]: 97%; Complement activation / cytolysis by binding of Infliximab (in words) (human T-cell lines): could not confirm; SEA induced cytokine production after addition of Infliximab (in words) [3]: reduced; Infliximab molecules bound per cell (Scatchard analyses) [4]: about 35000 molecules per cell; Amount of propidium iodide and Annexin-FITC positive cells compared with SEA alone (in words) [5]: did not increase; Induction of apoptosis (in words) [5]: did not induce any apoptosis
